Results taken from patent US5089623A, “Certain imidate insecticides” (Imperial Chemical Industries Plc, priority 1990, dated 1992).

Columns and labels:
Assay type in all cases: in vivo
[1] = tested on: Tobacco Budworm [Heliothis virescens (Fabricius)] eggs; experiment: Tobacco budworm egg test (TBW-E); conditions: percent in solution
Description: Eggs: Paper towel patches of 2-day old eggs of the tobacco budworm were dipped in acetone solutions of the test compound and placed in petri dishes containing a portion of larval rearing medium. […] Test concentrations ranged from 0.1% downward.

[2] = tested on: Cabbage Looper [Trichoplusia ni (Hubner)]; experiment: Cabbage looper test (CL); conditions: second-instar larvae, 3-5 days, percent in solution
[3] = tested on: Housefly [Musca domestica]; experiment: Housefly insecticidal test (HF); conditions: per 25 female houseflies, 48 hours

Structure (SMILES) | LC50 TBW E [1] | LC50 CL [2] | LC50 HF [3]
CC(C)(C)C(=Nc1ccc(Br)c(Cl)c1)OCc1cccc(Oc2ccccc2)c1 [Compound 106] | > 0.1% | 0.014% | > 100 µg
CC(C)C(=Nc1ccc(Cl)c(C(F)(F)F)c1)OCc1cccc(Oc2cccc(F)c2)c1 [Compound 195] | > 0.1% | 0.002% | > 100 µg
CC(C)(C)C(=Nc1cccc(Cl)c1)OCc1cccc(Oc2ccccc2)c1 [Compound 12] | > 0.1% | 0.008% | > 100 µg
CC(C)C(=Nc1cccc(F)c1)OCc1cccc(Oc2ccc(F)cc2)c1 [Compound 200] | 0.1% | 0.00075% | 7.5 µg
CC(C)C(=Nc1ccc(F)c(Cl)c1)OCc1ccc(OCc2ccc(F)cc2)cc1 [Compound 487] | > 0.1% | 0.023% | > 100 µg
Cc1ccc(C)c(N=C(OCc2cccc(Oc3ccccc3)c2)C(C)C)c1 [Compound 250] | 0.03% | 0.004% | 38 µg
CC(C)C(=Nc1ccc2c(c1)OCO2)OCc1cc(Oc2ccc(F)cc2)ccc1Cl [Compound 274] | > 0.1% | 0.1% | > 100 µg
CCCC(=Nc1ccc(F)c(Cl)c1)OCc1cccc(Oc2ccccc2)c1 [Compound 123] | > 0.1% | 0.012% | > 100 µg
CC(C)C(=Nc1ccc2c(c1)OCO2)OCc1cccc(Oc2ccccc2)n1 [Compound 467] | 0.04% | 0.003% | 6 µg
COc1ccc(Cl)cc1N=C(OCc1cccc(Oc2ccccc2)c1)C(C)C [Compound 264] | > 0.1% | 0.03% | > 100 µg
CCC(=Nc1ccc(Cl)c(Cl)c1)OCc1cccc(Oc2ccccc2)c1 [Compound 36] | > 0.01% | 0.024% | 20 µg
CC(C)C(=Nc1cccc(Br)c1)OCc1cccc(Oc2ccc(F)cc2)c1 [Compound 229] | > 0.1% | 0.0005% | 20 µg
Cc1cccc(N=C(OCc2cccc(Oc3ccccc3)c2)C(C)C)c1C [Compound 148] | 0.025% | 0.0025% | 18 µg
CC(C)CC(=Nc1ccc(C(C)C)cc1)OCc1cccc(Oc2ccc(F)cc2)c1 [Compound 329] | > 0.1% | 0.033% | 7 µg
CC(C)C(=Nc1cc(C(F)(F)F)ccc1F)OCc1cccc(Oc2ccccc2)c1 [Compound 84] | 0.1% | 0.006% | 93 µg
CC(C)C(=Nc1ccc(C#N)c(F)c1)OCc1cccc(Oc2ccccc2)c1 [Compound 233] | 0.09% | 0.0017% | 10 µg
CC(C)(C)C(=Nc1ccc(Cl)c([N+](=O)[O-])c1)OCc1cccc(Oc2ccccc2)c1 [Compound 105] | > 0.1% | 0.018% | > 100 µg
CC(C)C(=Nc1ccc(F)cc1)OCc1coc(Cc2ccccc2)c1 [Compound 491] | 0.08% | 0.0028% | 9 µg
CC(C)C(=Nc1ccc(C(C)(C)C)cc1)OCc1cccc(Oc2ccc(F)cc2)c1 [Compound 235] | > 0.1% | 0.004% | > 100 µg
CC(C)C(=Nc1ccc2c(c1)OC(C)(C)O2)OCc1cccc(Oc2ccc(Cl)cc2)c1 [Compound 241] | > 0.1% | 0.0004% | > 100 µg
Cc1ccc(N=C(OCc2cccc(Oc3ccccc3)c2)C(C)(C)C)cc1Cl [Compound 107] | > 0.1% | 0.007% | > 100 µg
CCC(C)C(=Nc1ccc2c(c1)OCO2)OCc1cccc(Oc2ccccc2)c1 (stereo not drawn) [Compound 185] | 0.075% | 0.0006% | 13 µg
CC(C)C(=Nc1ccc2c(c1)OCO2)OCc1cccc(Oc2ccc(C(F)(F)F)cc2)c1 [Compound 246] | > 0.1% | 0.004% | 60 µg
CC1CC1C(=Nc1ccc(Cl)cc1)OCc1cccc(Oc2ccccc2)c1 (stereo not drawn) [Compound 15] | > 0.01% | 0.025% | > 100 µg
Cc1ccc(N=C(OCc2cccc(Oc3ccccc3)c2)C(C)C)cc1C [Compound 158] | 0.1% | 0.003% | 9 µg
Cc1c(COC(=Nc2ccc(Cl)cc2)C(C)C)cccc1-c1ccccc1 [Compound 455] | > 0.1% | 0.0025% | > 100 µg
CC(C)(F)C(=Nc1ccc(F)c(F)c1)OCc1cccc(Oc2ccc(F)cc2)c1 [Compound 318] | > 0.1% | 0.0007% | 19 µg

Structure (SMILES) | LC50 TBW E [1] | LC50 CL [2] | LC50 HF [3]
CC(C)C(=Nc1cccc(C#N)c1)OCc1cccc(Oc2ccccc2)c1 [Compound 126] | > 0.1% | 0.08% | > 100 µg
CC(C)C(=Nc1ccc(Cl)c(Cl)c1)OCc1cccc(Oc2cccc(Cl)c2)c1 [Compound 207] | > 0.1% | 0.008% | > 100 µg
CC(C)C(=Nc1cccc(C(F)(F)F)c1)OCc1cccc(OCc2ccc(F)cc2)c1 [Compound 489] | > 0.1% | < 0.1% | > 100 µg
CCSc1ccc(N=C(OCc2cccc(Oc3ccccc3)c2)C(C)C)cc1Cl [Compound 103] | > 0.1% | 0.015% | > 100 µg
CC(C)C(=Nc1cccc(C(F)(F)F)c1)OCc1cccc(Oc2cccc(F)c2)c1 [Compound 192] | 0.07% | 0.0012% | 25 µg
C=CCOc1cccc(COC(=Nc2ccc(Cl)c(Cl)c2)C(C)C)c1 [Compound 481] | > 0.1% | 0.015% | > 100 µg
CC(C)C(=Nc1ccc(Cl)cc1Cl)OCc1cccc(Oc2ccccc2)c1 [Compound 311] | 0.1% | 0.0017% | 22 µg
CC(C)C(=Nc1ccc(Cl)cc1)OCc1coc(Cc2ccccc2)c1 [Compound 484] | > 0.1% | 0.003% | 16 µg
Cc1ccc(N=C(OCc2cccc(Oc3ccccc3)c2)C(C)C)c(Cl)c1 [Compound 94] | 0.075% | 0.0045% | 44 µg
Cc1cc(Cl)ccc1N=C(OCc1cccc(Oc2ccccc2)c1)C(C)(C)C [Compound 109] | > 0.1% | 0.002% | > 100 µg
Cc1cc(N=C(OCc2cccc(Oc3ccc(F)cc3)c2)C(C)C)ccc1F [Compound 236] | 0.06% | 0.0018% | 7 µg
CC(C)C(=Nc1ccc(F)c(Cl)c1)OC(C)c1cccc(Oc2ccccc2)n1 (stereo not drawn) [Compound 498] | > 0.1% | 0.002% | 49 µg
CC(C)C(=Nc1cccc(SC(F)(F)F)c1)OCc1cccc(Oc2ccc(F)cc2)c1 [Compound 272] | > 0.1% | 0.0024% | > 100 µg
CCC(C)C(=Nc1ccc(F)c(Cl)c1)OCc1ccc(F)c(Oc2ccccc2)c1 (stereo not drawn) [Compound 261] | 0.05% | 0.001% | 24 µg
Cc1ccc(Cl)cc1N=C(OCc1cccc(Oc2ccccc2)c1)C(C)C [Compound 263] | > 0.1% | 0.05% | > 100 µg
CC(C)C(=Nc1ccc(Br)c(Br)c1)OCc1cccc(Oc2ccc(F)cc2)c1 [Compound 251] | 0.06% | 0.0005% | 25 µg
CC(C)C(=Nc1c(Br)cc(F)cc1Br)OCc1cccc(Oc2ccccc2)c1 [Compound 130] | > 0.1% | 0.005% | > 100 µg
CC(C)(C)C(=Nc1cccc([N+](=O)[O-])c1)OCc1cccc(Oc2ccccc2)c1 [Compound 175] | > 0.1% | 0.018% | > 100 µg
COCc1c(F)c(F)c(COC(=Nc2ccc3c(c2)OCO3)C(C)C)c(F)c1F [Compound 501] | > 0.1% | 0.00045% | 20 µg
CC(C)C(=Nc1ccc(Cl)cc1Cl)OCc1cccc(Oc2ccc(F)cc2)c1 [Compound 312] | > 0.1% | 0.006% | > 100 µg
CC(C)(F)C(=Nc1ccc(F)c(Cl)c1)OCc1cccc(Oc2ccc(F)cc2)c1 [Compound 309] | 0.07% | 0.00017% | > 100 µg
CC(C)C(=Nc1ccc(Cl)cc1)OCc1cccc(Oc2ccc(Br)cc2)c1 [Compound 237] | 0.075% | 0.0006% | 50 µg
COc1cccc(N=C(OCc2cccc(Oc3ccc(F)cc3)c2)C(C)C)c1 [Compound 201] | > 0.1% | 0.004% | 15 µg
CC(C)C(=Nc1ccc(F)c(Br)c1)OCc1cccc(Oc2ccc(Br)cc2)c1 [Compound 276] | 0.1% | 0.002% | 39 µg
CC(C)C(=Nc1ccc(F)cc1)OCc1cccc(Oc2cccc(Cl)c2)c1 [Compound 205] | > 0.1% | 0.004% | 50 µg
CC(C)C(=Nc1ccc(F)cc1)OCc1cccc(Oc2ccc(F)c(F)c2)c1 [Compound 265] | 0.07% | 0.00025% | 10 µg
